Test system: SARS-CoV-2 variants of concern (Alpha, Beta, Gamma, Delta)
Type: cell-based

O=C(O)c1ccccn1 [PA, pyridine-2-carboxylic acid]
viral load abrogated by: ~1 log

— patent US12268676B2, “Antiviral applications of picolinic acid and its derivatives” (INDIAN INSTITUTE OF SCIENCE, priority 2021, dated 2025)
